Tests used:
[1] = tested on: connexin 43 (CX43) of cultured cardiomyocytes; conditions: gallein 100 µM; ref [13]; cited from earlier work
Excerpt: Gallein is an inhibitor of Gβγ-mediated signaling that occupies a “common” interaction surface of Gβγ and inhibits the interaction of Gβγ-regulated proteins with Gβγ [25]. Thus, gallein is expected to block a wide range of Gβγ signals in cells, including CX43 regulation mediated by AGS-Gβγ. We previously demonst ...

[2] = tested on: cardiomyocytes; test: MTT assay, viability of cardiomyocytes; type: cell-based, Wistar rat
Method: Cardiomyocytes in 24-well culture plates were incubated in PBS (pH 7.4) containing 0.5 mg/ml MTT at 37°C. After for 2 h incubation, the PBS was removed and 100 µl of dimethyl sulfoxide (DMSO) was added to each well to solubilize dark blue formazan products. Absorbance of the colored solution was determined at 595 nm.
Here, we first examined the influence of the AGS8-peptide and gallein on the viability of cells. Cardiomyocytes were incubated with gallein for 24 h, and their viability was determined by MTT assay.
Figure 7 Effect of AGS8-peptide or Gallein on the viability of cardiomyocytes determined by MTT assay. Neonatal cardiomyocytes were cultured for 24-peptide or Gallein. […] N = 5 from 5 independent experiments.

O=C1OC2(c3ccccc31)c1ccc(O)c(O)c1Oc1c2ccc(O)c1O [gallein]
inhibition of hypoxia-induced internalization of CX43 [1]: completely inhibits hypoxia-induced internalization of CX43
cytotoxicity / viability of cardiomyocytes ([2]; MTT assay, 1 µM, 24 h, N = 5 independent experiments): caused damage in the cardiomyocytes
cytotoxicity under normoxia ([2]; normoxia): produced deleterious effects
